The values that follow come from PubChem BioAssay AID330 (DTP/NCI, 2004).

This test concerns P388 leukemia ip, CD2F1 mice, survival T/C. The test is described as follows: NCI In Vivo Anticancer Drug Screen. Data for tumor model P388 Leukemia (intraperitoneal) in CD2F1 (CDF1) mice. The settings on record: endpoint: median survival time, higher = longer survival. The gist of the method:
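Mice carrying the transplanted tumor received test compound or vehicle. Survival was recorded in each group, and the value is the treated-group measurement divided by that of the vehicle-treated control group.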

Setting [1] is: dose: 60.0 mg/kg/injection, schedule: Q01DX005 (ip), vehicle: saline with Tween-80.
[2] abbreviates: dose: 50.0 mg/kg/injection, schedule: Q01DX005 (ip), vehicle: saline with Tween-80.
Where [3] appears, read: dose: 100.0 mg/kg/injection, schedule: Q01DX005 (ip), vehicle: saline with Tween-80.
The mark [4] stands for this setting: dose: 200.0 mg/kg/injection, schedule: Q01DX005 (ip), vehicle: saline with Tween-80.
The mark [5] stands for this setting: dose: 60.0 mg/kg/injection, schedule: Q01DX005 (ip), vehicle: Klucel (hydroxypropylcellulose) (HPC).
Setting [6] is: dose: 120.0 mg/kg/injection, schedule: Q01DX005 (ip), vehicle: Klucel (hydroxypropylcellulose) (HPC).
The mark [7] stands for this setting: dose: 240.0 mg/kg/injection, schedule: Q01DX005 (ip), vehicle: Klucel (hydroxypropylcellulose) (HPC).
Setting [8] is: dose: 50.0 mg/kg/injection, schedule: Q01DX005 (ip), vehicle: Klucel (hydroxypropylcellulose) (HPC).
The mark [9] stands for this setting: dose: 50.0 mg/kg/injection, schedule: Q01DX005 (ip), vehicle: saline.
Where [10] appears, read: dose: 100.0 mg/kg/injection, schedule: Q01DX005 (ip), vehicle: saline.

Where “and” joins values, the source holds several entries; their conditions need not be identical. Equal values may be shown once. Inconclusive results and toxic doses are left out.

Consider `CCOC(=O)NC(NC(=O)OCC)c1cccc(F)c1`, for which the T/C (dose: 100.0 mg/kg/injection, schedule: Q04DX003 (ip), vehicle: saline) is 99 % of control; the T/C (dose: 200.0 mg/kg/injection, schedule: Q04DX003 (ip), vehicle: saline) was 99 % of control; the T/C (dose: 400.0 mg/kg/injection, schedule: Q04DX003 (ip), vehicle: saline) is 93 % of control.
For the compound `Nc1[nH]c(=O)ncc1-c1ccc(Cl)cc1`, the T/C is 97 % of control under setting [1] and 96 % of control (dose: 120.0 mg/kg/injection, schedule: Q01DX005 (ip), vehicle: saline with Tween-80).
Turning to `CCCCCCC(=O)/C=C/c1cc(OC)c(OC)c(OC)c1`, the T/C runs as follows: (dose: 50.0 mg/kg/injection, schedule: Q01DX009 (ip), vehicle: saline with Tween-80) 101 % of control; (dose: 100.0 mg/kg/injection, schedule: Q01DX009 (ip), vehicle: saline with Tween-80) 96 % of control; (dose: 200.0 mg/kg/injection, schedule: Q01DX009 (ip), vehicle: saline with Tween-80) 92 % of control.
`Cc1cccc(/C=N/N2CCN(C(c3ccccc3)c3ccccc3)CC2)n1`: the T/C reads like this: (dose: 100.0 mg/kg/injection, schedule: Q01DX001 (ip), vehicle: Klucel (hydroxypropylcellulose) (HPC)) 100 % of control; (dose: 200.0 mg/kg/injection, schedule: Q01DX001 (ip), vehicle: Klucel (hydroxypropylcellulose) (HPC)) 97 % of control; (dose: 400.0 mg/kg/injection, schedule: Q01DX001 (ip), vehicle: Klucel (hydroxypropylcellulose) (HPC)) 100 % of control.
Consider `CN1C(=O)CC2C(=O)N(Cc3ccccc3)C(=O)C2C1=O` (stereo not given), for which the T/C is 101 % of control under setting [2], 101 % of control under setting [3] and 96 % of control under setting [4].
As to `O=c1[nH]cc(CCCc2ccccc2)c(=O)[nH]1`, the T/C is 102 % of control under setting [5], 95 % of control under setting [6] and 95 % of control under setting [7].
For `CC(=O)[O][Bi]([c]1ccccc1)[c]1ccccc1`, the T/C runs as follows: (dose: 3.12 mg/kg/injection, schedule: Q01DX005 (ip), vehicle: Klucel (hydroxypropylcellulose) (HPC)) 106 % of control and 108 % of control; (dose: 6.25 mg/kg/injection, schedule: Q01DX005 (ip), vehicle: Klucel (hydroxypropylcellulose) (HPC)) 108 % of control and 110 % of control; (dose: 12.5 mg/kg/injection, schedule: Q01DX005 (ip), vehicle: Klucel (hydroxypropylcellulose) (HPC)) 103 % of control and 120 % of control; (dose: 25.0 mg/kg/injection, schedule: Q01DX005 (ip), vehicle: Klucel (hydroxypropylcellulose) (HPC)) 118 % of control; under setting [8], 90 % of control.
In the case of `O=c1cc(O)n(C2=NCCN2)[nH]1`, the T/C by setting is: (dose: 60.0 mg/kg/injection, schedule: Q01DX005 (ip), vehicle: suspension in saline) 97 % of control; (dose: 120.0 mg/kg/injection, schedule: Q01DX005 (ip), vehicle: suspension in saline) 97 % of control; (dose: 240.0 mg/kg/injection, schedule: Q01DX005 (ip), vehicle: suspension in saline) 105 % of control.
On to `CN(CC(N)=O)C(=O)N(CCCl)N=O`, for which the T/C is, setting by setting: (dose: 15.0 mg/kg/injection, schedule: Q01DX005 (ip), vehicle: saline with Tween-80) 160 % of control; (dose: 30.0 mg/kg/injection, schedule: Q01DX005 (ip), vehicle: saline with Tween-80) 201 % of control; under setting [1], 263 % of control.
`CN(C)CCC(=O)C(=Cc1ccc(Cl)c(Cl)c1)C(=O)CCN(C)C`: the T/C runs as follows: under setting [9], 104 % of control; under setting [10], 109 % of control.
Consider `O=C(O)CP(=O)(O)O`, for which the T/C was 94 % of control (dose: 4.0 mg/kg/injection, schedule: Q01DX009 (ip), vehicle: saline); 100 % of control (dose: 6.25 mg/kg/injection, schedule: Q01DX009 (ip), vehicle: saline); 99 % of control (dose: 8.0 mg/kg/injection, schedule: Q01DX009 (ip), vehicle: saline); 101 % of control (dose: 12.5 mg/kg/injection, schedule: Q01DX009 (ip), vehicle: saline); 91 % of control (dose: 16.0 mg/kg/injection, schedule: Q01DX009 (ip), vehicle: saline); 106 % of control (dose: 25.0 mg/kg/injection, schedule: Q01DX009 (ip), vehicle: saline). For the same compound, the T/C by setting is: (dose: 32.0 mg/kg/injection, schedule: Q01DX009 (ip), vehicle: saline) 100 % of control; (dose: 50.0 mg/kg/injection, schedule: Q01DX009 (ip), vehicle: saline) 103 % of control; (dose: 64.0 mg/kg/injection, schedule: Q01DX009 (ip), vehicle: saline) 102 % of control; (dose: 100.0 mg/kg/injection, schedule: Q01DX009 (ip), vehicle: saline) 103 % of control; (dose: 128.0 mg/kg/injection, schedule: Q01DX009 (ip), vehicle: saline) 94 % of control; (dose: 200.0 mg/kg/injection, schedule: Q01DX009 (ip), vehicle: saline) 106 % of control. Besides, the T/C by setting is: (dose: 400.0 mg/kg/injection, schedule: Q01DX009 (ip), vehicle: saline) 101 % of control; (dose: 800.0 mg/kg/injection, schedule: Q01DX009 (ip), vehicle: saline) 106 % of control.
For the compound `Cn1cc(N)c2ccccc2c1=O`, under setting [2], the T/C was 103 % of control.
With `C=C1C(=O)O[C@@H]2C[C@@H](C)[C@@H]3[C@@H](OC(C)=O)[C@@H](OC(C)=O)[C@H](OC(C)=O)[C@@]3(C)C[C@H]12`, the T/C is, setting by setting: (dose: 9.5 mg/kg/injection, schedule: Q01DX005 (ip), vehicle: Klucel (hydroxypropylcellulose) (HPC)) 102 % of control; (dose: 19.0 mg/kg/injection, schedule: Q01DX005 (ip), vehicle: Klucel (hydroxypropylcellulose) (HPC)) 100 % of control; (dose: 38.0 mg/kg/injection, schedule: Q01DX005 (ip), vehicle: Klucel (hydroxypropylcellulose) (HPC)) 106 % of control; (dose: 76.0 mg/kg/injection, schedule: Q01DX005 (ip), vehicle: Klucel (hydroxypropylcellulose) (HPC)) 97 % of control.
As for `CCCCCCCCCCCCCCCCNCC(O)CN` (stereo not given), the T/C is 102 % of control (dose: 3.13 mg/kg/injection, schedule: Q01DX009 (ip), vehicle: saline with Tween-80); 96 % of control (dose: 6.25 mg/kg/injection, schedule: Q01DX009 (ip), vehicle: saline with Tween-80); 88 % of control (dose: 12.5 mg/kg/injection, schedule: Q01DX009 (ip), vehicle: saline with Tween-80).
`COc1cc(N)c(S(=O)(=O)O)cc1N=N/C(=N/Nc1cc(S(=O)(=O)O)c(N)cc1OC)C(=O)Nc1ccccc1`: the T/C was 107 % of control under setting [8]; 104 % of control (dose: 100.0 mg/kg/injection, schedule: Q01DX005 (ip), vehicle: Klucel (hydroxypropylcellulose) (HPC)); 109 % of control (dose: 200.0 mg/kg/injection, schedule: Q01DX005 (ip), vehicle: Klucel (hydroxypropylcellulose) (HPC)).
On to `CC(CN)OS(=O)(=O)O` (stereo not given), for which the T/C (dose: 100.0 mg/kg/injection, schedule: Q04DX003 (ip), vehicle: saline with Tween-80) is 100 % of control; the T/C (dose: 200.0 mg/kg/injection, schedule: Q04DX003 (ip), vehicle: saline with Tween-80) is 100 % of control; the T/C (dose: 400.0 mg/kg/injection, schedule: Q04DX003 (ip), vehicle: saline with Tween-80) is 95 % of control.
For `CC(NC(=O)C(N)CCC(=O)O)C(=O)O` (stereo not given), the T/C under setting [9] is 103 % of control; the T/C under setting [10] was 100 % of control; the T/C (dose: 200.0 mg/kg/injection, schedule: Q01DX005 (ip), vehicle: saline) was 107 % of control.
For the compound `COC(=O)COc1cc2c(cc1C(C)c1ccc(O)cc1)OCO2` (stereo not given), the T/C under setting [2] was 100 % of control, the T/C under setting [3] was 102 % of control and the T/C under setting [4] was 90 % of control.
`O=C1CSc2ccccc2-n2cccc21`: the T/C was 89 % of control under setting [5], 109 % of control under setting [6] and 101 % of control under setting [7].
As for `CC1CCC2N(C1)CC1C3(O)CC4(O)C(CCC5C(=O)C(O)CCC54C)C3(O)CC(O)C1(O)C2(C)O` (stereo not given), the T/C by setting is: (dose: 1.87 mg/kg/injection, schedule: Q01DX005 (ip), vehicle: Klucel (hydroxypropylcellulose) (HPC)) 96 % of control; (dose: 3.75 mg/kg/injection, schedule: Q01DX005 (ip), vehicle: Klucel (hydroxypropylcellulose) (HPC)) 97 % of control; (dose: 7.5 mg/kg/injection, schedule: Q01DX005 (ip), vehicle: Klucel (hydroxypropylcellulose) (HPC)) 99 % of control and 97 % of control.
